Laboratory results reported in patent US20110166196A1, “TREATMENT AND PROPHYLAXIS OF EPILEPSY AND FEBRILE SEIZURES” (priority 2008, published 2011).

Experiments:
[1] = system: excitatory synapses onto CA1 hippocampal interneurons; assay: Drug-induced depression of EPSC amplitudes, whole-cell recording in hippocampal slices; format: cell-based, rat
Source text: (§1) The basic methods have been detailed previously (McMahon and Kauer, 1997). Sprague-Dawley rats (15-22 days old) were used in the majority of experiments. In addition, we used TRPV1^−/− mice (Caterina et al., 2000) and wild-type C57BL/6 mice aged between 15 and 21 days (Jackson Laboratory). The TRPV1^−/− mice we used have been backcrossed at least 10 times onto a C57BL/6 background and were obtained from homozygous breeding pairs. Control mice were therefore not littermates but were age-matched, wild-type C57BL/6 animals received from the same supplier in the same shipment. All animal protocols were approved by the Brown University Institutional Animal Care and Use Committee. For mouse experiments, only one brain slice per mouse was used for each experiment, so that reported ‘n’ numbers represent the number of animals. Animals were anaesthetized using halothane or isoflurane and quickly decapitated. The brain was rapidly removed and 300 μm thick coronal slices prepared and stored for at least one hour submerged on a net in artificial cerebrospinal fluid (ACSF) containing in mM: 119 NaCl, 26 NaHCO3, 2.5 KCl, 1.0 NaH2PO4, 2.5 CaCl2, 1.3 MgSO4 and 11 dextrose, saturated with 95% O2/5% CO2 (pH 7.4). Slices were then transferred to a submerged recording chamber and bathed in oxygenated ACSF (28-32° C.) containing elevated divalent cations to reduce epileptiform activity (4 mM CaCl2 and 4 mM MgCl2, replacing MgSO4). A surgical cut was made between the CA3 and CA1 regions. The storage of slices submerged on a net rather than in an interface chamber on filter paper may be important in maintaining slice health and improving the likelihood of observing LTD.
(§2) Slices were continuously perfused with ACSF warmed to 28-32° C. at a flow rate of 1-2 ml/min. Picrotoxin (100 μM) and D-AP5 (50 μM) were added to block GABAA receptor- and NMDAR-mediated synaptic transmission. Whole-cell patch clamp recordings were made from interneurons identified visually in the CA1 stratum radiatum of the hippocampus. […] Patch pipettes were filled with internal recording solution containing in mM: 117 cesium gluconate, 2.8 NaCl, 5 MgCl2, 20 HEPES, 2 ATP-Na^+, 0.3 GTP-Na^+ and 0.6 EGTA. In some experiments 2 μM capsazepine, 140 nM baicalein, or 250 μM GDPβS were also included in the intracellular patch pipette solution. In experiments with BAPTA-containing patch electrodes, EGTA was omitted from the intracellular solution and 25 or 40 mM BAPTA replaced a corresponding amount of cesium gluconate. EPSCs were stimulated at 0.1 Hz (100 μsec) using a bipolar stainless steel stimulating electrode placed in stratum radiatum at least 200 μm from the recorded cell. CA1 interneurons were voltage clamped at −65 mV (not corrected for the liquid junction potential, of ˜10 mV), and EPSCs were evoked by paired pulses with an interval of 50 msec (stimulus intensity typically 50-400 μA). In early experiments, we measured rectification ratios of EPSCs evoked at +40 mV/−60 mV in the presence of 50 μM D-AP5, measured at the time of peak inward synaptic current seen at −70 mV (Lei and McBain, 2004).
The maximal initial slope of fEPSPs was calculated using a LabVIEW-based program (National Instruments). The peak amplitude of each EPSC was measured by comparing a 10 msec time period immediately prior to the stimulus with the peak of the EPSC using this program as well. Occasionally polysynaptic responses were evoked, and in these cases, only the initial monosynaptic event was measured. To positively identify LTD, EPSCs measured every 10 seconds were averaged in 1 minute intervals. EPSC amplitude values were normalized to control pre-HFS EPSC amplitude values (baseline period of at least 5 minutes prior to HFS) and subjected to analysis of variance (ANOVA) repeated measures analysis with a post-hoc Dunnett's test (GraphPad Prism, Version 4).

[2] = target: T1, TRPV1 receptors (Rattus norvegicus, UniProt O35433); assay: Capsaicin-evoked inward current (peak change in holding current) in hippocampal neurons; format: cell-based
T1 construct: inward currents were elicited in both CA3 and CA1 pyramidal cells; from tissue; host or cells: acute coronal hippocampal slices: CA1 and CA3 pyramidal cells and CA1 stratum radiatum interneurons
T1 sequence (O35433 whole entry): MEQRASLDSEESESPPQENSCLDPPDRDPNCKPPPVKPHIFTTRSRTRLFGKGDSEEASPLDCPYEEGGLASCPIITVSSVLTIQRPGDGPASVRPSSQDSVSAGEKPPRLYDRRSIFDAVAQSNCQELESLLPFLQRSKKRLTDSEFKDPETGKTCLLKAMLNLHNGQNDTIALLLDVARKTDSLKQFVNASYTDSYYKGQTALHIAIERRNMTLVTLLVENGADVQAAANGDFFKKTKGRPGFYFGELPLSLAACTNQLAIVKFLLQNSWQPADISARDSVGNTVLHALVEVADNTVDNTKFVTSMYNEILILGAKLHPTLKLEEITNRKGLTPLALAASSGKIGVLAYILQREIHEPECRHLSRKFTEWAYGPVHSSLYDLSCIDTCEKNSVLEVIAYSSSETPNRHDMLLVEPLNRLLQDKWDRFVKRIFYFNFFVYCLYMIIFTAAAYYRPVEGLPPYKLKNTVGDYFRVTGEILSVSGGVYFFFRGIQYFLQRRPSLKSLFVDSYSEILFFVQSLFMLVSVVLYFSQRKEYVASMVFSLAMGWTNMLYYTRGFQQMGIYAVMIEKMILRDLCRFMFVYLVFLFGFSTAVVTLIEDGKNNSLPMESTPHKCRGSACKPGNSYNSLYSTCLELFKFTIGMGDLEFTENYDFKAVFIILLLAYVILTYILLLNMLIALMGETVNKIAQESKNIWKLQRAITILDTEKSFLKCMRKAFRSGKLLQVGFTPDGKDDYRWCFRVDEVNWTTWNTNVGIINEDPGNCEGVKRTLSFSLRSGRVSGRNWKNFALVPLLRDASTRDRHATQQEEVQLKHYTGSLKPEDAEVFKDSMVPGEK
Method: as §2
The maximal initial slope of fEPSPs was calculated using a LabVIEW-based program (National Instruments). The peak amplitude of each EPSC was measured by comparing a 10 msec time period immediately prior to the stimulus with the peak of the EPSC using this program as well. Occasionally polysynaptic responses were evoked, and in these cases, only the initial monosynaptic event was measured. To positively identify LTD, EPSCs measured every 10 seconds were averaged in 1 minute intervals. EPSC amplitude values were normalized to control pre-HFS EPSC amplitude values (baseline period of at least 5 minutes prior to HFS) and subjected to analysis of variance (ANOVA) repeated measures analysis with a post-hoc Dunnett's test (GraphPad Prism, Version 4). […] EPSC amplitude values 15 to 20 minutes post-HFS were compared between control LTD experiments and those carried out either in transgenic TRPV1^−/− mice, or in the presence of drug using a t-test (unpaired, two-tailed, with Welch's correction if the variances between the groups were unequal). To calculate the effects of capsaicin, 12-(S)-HPETE or WIN 55,212-2 application on basal excitatory glutamatergic transmission, normalized EPSC amplitudes or fEPSP slopes were averaged in the final 5 minutes of drug application and compared with EPSCs/EPSPs 5 minutes prior to drug application. […] The n-values reported refer to the number of slices. All combined data are expressed as mean±the standard error of the mean (s.e.m.).

[3] = system: excitatory synapses onto CA1 hippocampal interneurons; assay: HFS-induced long-term depression (LTD) of EPSCs, whole-cell recording in hippocampal slices; format: cell-based, rat
Source text: as §1, §2
High-frequency stimulation was used to induce LTD (HFS; two 1 sec trains at 100 Hz, inter-train interval 20 sec, at 1.5 times test current intensity) with the neuron held in current-clamp mode, so that the HFS trains were delivered with the membrane potential free to vary. Receptor antagonists were added directly to the ACSF at known concentrations for at least 10 minutes prior to HFS. Control experiments were interleaved with those experiments using receptor antagonists or involving slices from TRPVl^−/− mice. The cell input resistance and series resistance were monitored throughout each experiment; cells were discarded if these values changed by more than 10% during the experiment.

[4] = target: T2, TRPV1 channels (Mus musculus, UniProt Q704Y3); assay: TRPV1 agonist-evoked inward current and depolarization in CA1 pyramidal neurons; format: cell-based
T2 construct: whole-cell recordings from acutely prepared brain slices from wild type C57BL/6 mice; from tissue; host or cells: acute coronal hippocampal slices from P14-P20 wild-type C57BL/6 mice: CA1 pyramidal neurons
T2 sequence (Q704Y3 whole entry): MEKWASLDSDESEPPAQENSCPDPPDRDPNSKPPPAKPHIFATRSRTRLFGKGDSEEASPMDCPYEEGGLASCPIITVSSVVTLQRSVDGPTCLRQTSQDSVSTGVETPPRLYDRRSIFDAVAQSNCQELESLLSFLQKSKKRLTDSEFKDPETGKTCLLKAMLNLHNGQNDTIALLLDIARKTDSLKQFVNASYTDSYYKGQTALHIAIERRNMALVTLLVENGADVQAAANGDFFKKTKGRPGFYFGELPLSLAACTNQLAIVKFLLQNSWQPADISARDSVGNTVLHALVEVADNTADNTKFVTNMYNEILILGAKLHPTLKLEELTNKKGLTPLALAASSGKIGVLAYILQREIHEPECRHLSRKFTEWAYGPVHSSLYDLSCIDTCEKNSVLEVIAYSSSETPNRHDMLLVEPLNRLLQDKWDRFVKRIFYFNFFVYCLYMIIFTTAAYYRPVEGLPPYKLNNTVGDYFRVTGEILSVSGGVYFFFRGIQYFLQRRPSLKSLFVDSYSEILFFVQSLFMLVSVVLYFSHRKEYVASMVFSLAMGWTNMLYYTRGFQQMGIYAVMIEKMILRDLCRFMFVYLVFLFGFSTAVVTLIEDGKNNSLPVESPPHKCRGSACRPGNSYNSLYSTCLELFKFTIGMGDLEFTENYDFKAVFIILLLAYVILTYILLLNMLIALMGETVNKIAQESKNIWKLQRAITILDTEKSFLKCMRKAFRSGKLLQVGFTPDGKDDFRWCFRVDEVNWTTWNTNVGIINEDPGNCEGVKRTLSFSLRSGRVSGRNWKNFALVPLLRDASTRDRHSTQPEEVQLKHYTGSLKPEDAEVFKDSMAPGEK

[5] = system: excitatory synapses onto CA1 hippocampal interneurons; assay: Synaptic failure analysis using minimal stimulation; format: cell-based, rat; details: capsaicin 1 μM; pre-capsaicin 38.4±3.5%; n=5
Method: as §2, with “CA1 interneurons were voltage clamped at −65 mV (not corrected for the liquid junction potential, of ˜10 mV), and EPSCs were evoked by paired pulses with an interval of 50 msec (stimulus intensity typically 50-400 μA).” left out

[6] = capsaicin 3 μM, capsazepine 10 μM, n=5

| Peak capsaicin response in the presence of capsazepine in CA1 interneurons ([2]; capsaicin 3 μM, capsazepine 10 μM, P=0.06, n=5) [pA] | Peak capsaicin response in the presence of capsazepine in CA1 pyramidal cells [2, 6] [pA] | Peak capsaicin response in the presence of capsazepine in CA3 pyramidal cells [2, 6] [pA] | effect on capsaicin-induced depolarization of CA1 pyramidal neurons ([4]; 2 μM intracellular capsazepine, capsaicin 3 μM, p<0.001) | capsaicin-evoked current in the presence of capsazepine ([4]; capsaicin 3 μM plus capsazepine 10 μM) | effect on 12-(S)-HPETE-evoked inward current ([4]; capsazepine 10 μM, 12-(S)-HPETE 100 nM) | 1 μM capsaicin response in interneurons ([2]; 1 μM capsaicin, P=0.78 vs pre-drug, n=5) [pA] | peak capsaicin response in CA3 pyramidal cells (inward current) ([2]; 3 μM capsaicin bath application, n=5) [pA] | peak capsaicin response in CA1 pyramidal cells (inward current) ([2]; 3 μM capsaicin bath application, n=7) [pA] | peak capsaicin response in interneurons (inward current) ([2]; 3 μM capsaicin, CA1 stratum radiatum interneurons, n=5) [pA] | capsaicin-evoked current in a CA1 neuron ([4]; capsaicin 3 μM bath-applied) | effect on membrane potential of CA1 pyramidal neurons ([4]; capsaicin 3 μM bath-applied, current-clamp) | SMILES | EPSC amplitudes after 10-15 minutes in 1 μM capsaicin and in the presence of intracellular capsazepine ([1]; capsazepine 2 μM in patch pipette, capsaicin 1 μM bath, n=6) | EPSC amplitudes after 10-15 minutes in 12-(S)-HPETE and in the presence of capsazepine ([1]; capsazepine 10 μM, 12-(S)-HPETE 100 nM, n=6) | EPSC amplitudes 10-15 minutes after adding capsazepine ([3]; 10 μM capsazepine added 10 minutes after HFS (LTD maintenance), n=6) | EPSC amplitudes 15-20 minutes post-HFS with intracellular capsazepine ([3]; capsazepine 2 μM in patch pipette, P=0.20 vs control LTD, n=7) | EPSC amplitudes 15-20 minutes post-HFS in capsazepine ([3]; capsazepine 10 μM bath applied prior to HFS, n=9) | EPSC amplitudes after 10-15 minutes in capsaicin ([1]; capsaicin 1 μM bath-applied, n=14) | average synaptic failures in capsaicin [5] [%] | EPSC amplitudes 15-20 minutes post-HFS ([3]; HFS after capsaicin 1 μM exposure (occlusion), n=10) |
| --- | --- | --- | --- | --- | --- | --- | --- | --- | --- | --- | --- | --- | --- | --- | --- | --- | --- | --- | --- | --- |
| 0.4±0.2 | 0.1±0.1 | 0.1±0.1 | prevented | does not induce current | blocked | – | – | – | – | – | – | Oc1cc2c(cc1O)CN(C(=S)NCCc1ccc(Cl)cc1)CCC2 [capsazepine] | 46.8±10.3 % of pre-capsaicin control values | 103.0±8.9 % of pre-12-(S)-HPETE control values | 50.1±6.1 % of pre-HFS values | 47.5±10.3 % of control values before HFS | 105.6±8.6 % of control values before HFS | – | – | – |
| – | – | – | – | – | – | 0.7±0.3 | 180.1±48.0 | 160.1±55.3 | 41.6±16.2 | induces inward current | significantly depolarized | COc1cc(CNC(=O)CCCCC=CC(C)C)ccc1O [capsaicin, 8-methyl-N-vanillyl-6-nonenamide] | – | – | – | – | – | 73.3±4.6 % of pre-drug control values | 73.5±7.8 | 112.5±21.9 % of control values in capsaicin before HFS |
